The source of these data is US20260078130A1, “NAMPT MODULATORS, PREPARATIONS, AND USES THEREOF” (SIRONAX LTD., priority 2022, published 2026).

Usually EC50 stands for the concentration giving half of the maximal effect.

SMILES strings stand for the structures. Where two headings read alike, the source gives them in different places.

Assay [1] concerns the target T1, human enzyme NAMPT (full length) (Homo sapiens, UniProt P43490).
T1 construct: human enzyme NAMPT (full length)
Kind of assay: NMN fluorescence biochemical assay (stimulation of NMN synthesis by NAMPT). Conditions: for EC50: concentration giving half-maximal activation, read-out: Enzymatic EC50; for Enzymatic Emax: fold change of maximal activation compared to DMSO. In outline:
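Full-length human NAMPT (100 nM) was preincubated 15 min at 37 °C with compound in 50 mM Tris-HCl pH 7.5, 10 mM MgCl2, 2 mM DTT, then reacted 1 h at 37 °C with 50 μM NAM, 100 μM PRPP, 4 mM ATP (stated solution concentrations). NMN was derivatised with acetophenone/KOH then formic acid and read at Ex/Em 382/445 nm; EC50 and Emax (fold over DMSO) reported.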

The test system of assay [2] is endogenous NAMPT in U2OS cells. The assay is described as follows: Cellular NAD+ modulation assay (NAD/NADH-Glo, U2OS cells). The format is cell-based. Conditions: Homo sapiens; for maximal fold induction: read-out: Cellular Emax. In outline:
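NAD/NADH-Glo luminescence quantified NAD+ after acid treatment (60 °C, 15 min) and neutralization of DTAB lysates. Beforehand, U2OS cells seeded 16 h earlier received compound concentration series for 24 h at 37 °C. Values given as half-maximal activation concentration (EC50) and maximal fold change versus DMSO (Emax).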

The mark [3] stands for this setting: NMN fluorescence assay, purified human NAMPT 100 nM.
Where [4] appears, read: 24 hours incubation, cellular NAD+.
[5] abbreviates: NMN synthesis by purified human NAMPT (100 nM).
[6] abbreviates: 24 hours incubation with compound.

T1 sequence (P43490 whole entry): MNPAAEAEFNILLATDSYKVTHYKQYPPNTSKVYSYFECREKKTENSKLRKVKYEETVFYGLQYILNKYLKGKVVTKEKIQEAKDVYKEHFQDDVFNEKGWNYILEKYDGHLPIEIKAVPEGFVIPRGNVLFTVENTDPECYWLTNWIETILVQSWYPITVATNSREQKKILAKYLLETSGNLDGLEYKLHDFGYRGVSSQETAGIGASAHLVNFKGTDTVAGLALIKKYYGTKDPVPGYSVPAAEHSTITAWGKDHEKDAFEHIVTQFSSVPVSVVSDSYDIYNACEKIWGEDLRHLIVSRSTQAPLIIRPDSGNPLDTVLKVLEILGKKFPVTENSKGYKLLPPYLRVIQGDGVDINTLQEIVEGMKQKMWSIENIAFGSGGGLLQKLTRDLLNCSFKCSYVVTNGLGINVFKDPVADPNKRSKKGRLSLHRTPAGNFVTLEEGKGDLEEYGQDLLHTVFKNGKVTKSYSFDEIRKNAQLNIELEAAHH

On to `Cc1nn(C)c(CC2c3ccccc3C(=O)N2CC2CC3(CNC(=O)O3)C2)c1Cl` (centres unmarked) [Compound 527, 2-((1-((4-chloro-1,3-dimethyl-1H-pyrazol-5-yl)methyl)-3-oxoisoindolin-2-yl)methyl)-5-oxa-7-azaspiro[3.4]octan-6-one], for which the EC50 in assay [1] (setting [3]) was less than 500 nM. For the same compound, the “Enzymatic Emax” value in assay [1] is on record as “B (3≥B>2)”. In assay [2] (setting [4]), the EC50 was less than 500 nM and the maximal fold induction is greater than 1.5.
With `COc1ccc(CN2C(=O)c3ccccc3C2Cc2c(Cl)c(Cl)nn2C)cc1` (centres unmarked) [Compound 566, 3-((3,4-dichloro-1-methyl-1H-pyrazol-5-yl)methyl)-2-(4-methoxybenzyl)isoindolin-1-one], the EC50 is 500 to 5000 nM in assay [1] (setting [3]) and less than 500 nM in assay [2] (setting [4]). In assay [1], the “Enzymatic Emax” value is “A (A>3)”. Moreover, the maximal fold induction in assay [2] (setting [4]) was greater than 1.5.
Regarding `Cn1ncc(Cl)c1CC1c2ccc(F)cc2C(=O)N1Cc1ccc2[nH]nnc2c1` (centres unmarked) [Compound 340, 2-((1H-benzo[d][1,2,3]triazol-5-yl)methyl)-3-((4-chloro-1-methyl-1H-pyrazol-5-yl)methyl)-6-fluoroisoindolin-1-one], the EC50 in assay [1] (setting [3]) is less than 500 nM. The “Enzymatic Emax” value in assay [1] was “A (A>3)”. Also, in assay [2] (setting [4]), the EC50 is less than 500 nM and the maximal fold induction is greater than 1.5.
On to `N#Cc1cccc(Br)c1CC1c2ccccc2C(=O)N1Cc1ccc2[nH]c(=O)oc2c1` (centres unmarked) [Compound 200, 3-bromo-2-((3-oxo-2-((2-oxo-2,3-dihydrobenzo[d]oxazol-6-yl)methyl)isoindolin-1-yl)methyl)benzonitrile], for which the half-maximal effective concentration (EC50) in assay [1] (setting [5]) is less than 500 nM. Also, the “Enzymatic Emax” value in assay [1] was “B (3≥B>2)”. Also, in assay [2] (setting [6]), the concentration for a half-maximal effect (EC50) is less than 500 nM and the maximal fold induction is greater than 1.5.
In the case of `Cn1ncc(Cl)c1CC1c2ccccc2C(=O)N1Cc1ccc2nonc2c1` (centres unmarked) [Compound 600, 2-(benzo[c][1,2,5]oxadiazol-5-ylmethyl)-3-((4-chloro-1-methyl-IH-pyrazol-5-yl)methyl)isoindolin-1-one], the concentration giving a half-maximal response (EC50) in assay [1] (setting [3]) was no less than 5000 nM. Also, in assay [1], the “Enzymatic Emax” value is “C (2≥C)”. Besides, in assay [2] (setting [4]), the EC50 was 5000 to 50000 nM and the maximal fold induction is no more than 1.2.
In the case of `[2H]C([2H])(c1c(Cl)cnn1C)C1c2ccccc2C(C)(C)N1CC1CC2(CNC(=O)O2)C1` (centres unmarked) [Compound 616, 2-((3-((4-chloro-1-methyl-1H-pyrazol-5-yl)methyl-d2)-1,1-dimethylisoindolin-2-yl)methyl)-5-oxa-7-azaspiro[3.4]octan-6-one], the 50% effective concentration (EC50) in assay [1] (setting [3]) is 500 to 5000 nM. Also, the “Enzymatic Emax” value in assay [1] was “A (A>3)”. Also, in assay [2] (setting [4]), the EC50 was less than 500 nM and the maximal fold induction fell in the range of 1.2 to 1.5.
For the compound `Cn1ncc(Cl)c1CC1c2cccc(Cl)c2C(=O)N1Cc1ccc2[nH]nnc2c1` (centres unmarked) [Compound 336, 2-((1H-benzo[d][1,2,3]triazol-5-yl)methyl)-7-chloro-3-((4-chloro-1-methyl-1H-pyrazol-5-yl)methyl)isoindolin-1-one], the EC50 in assay [1] (setting [3]) is less than 500 nM. Further, in assay [1], the “Enzymatic Emax” value is “A (A>3)”. Also, in assay [2] (setting [4]), the concentration giving a half-maximal response (EC50) was less than 500 nM and the maximal fold induction was greater than 1.5.
As for `O=C1c2cccc(Br)c2C(=O)N1Cc1ccc(O)cc1` [Compound 296, 4-bromo-2-(4-hydroxybenzyl)isoindoline-1,3-dione], the EC50 in assay [1] (setting [5]) was 500 to 5000 nM. In addition, the “Enzymatic Emax” value in assay [1] is “C (2≥C)”. Further, in assay [2] (setting [6]), the EC50 lay in the range of 500 to 5000 nM and the maximal fold induction was 1.2 to 1.5.
For the compound `Cc1noc(Cl)c1CC1c2ccccc2C(=O)N1Cc1ccc2[nH]nnc2c1` (centres unmarked) [Compound 357, 2-((1H-benzo[d][1,2,3]triazol-5-yl)methyl)-3-((5-chloro-3-methylisoxazol-4-yl)methyl)isoindolin-1-one], the EC50 in assay [1] (setting [3]) was 500 to 5000 nM; in assay [2] (setting [4]), less than 500 nM. Moreover, in assay [1], the “Enzymatic Emax” value was “A (A>3)”. In assay [2] (setting [4]), the maximal fold induction was greater than 1.5.
As for `Cc1cccc2c1C(=O)N(CC1CC3(CNC(=O)O3)C1)C2Cc1c(Cl)cnn1C` (centres unmarked) [Compound 460, 2-((1-((4-chloro-1-methyl-1H-pyrazol-5-yl)methyl)-4-methyl-3-oxoisoindolin-2-yl)methyl)-5-oxa-7-azaspiro[3.4]octan-6-one], in assay [1] (setting [3]), the concentration giving a half-maximal response (EC50) was less than 500 nM. Moreover, the “Enzymatic Emax” value in assay [1] is listed as “B (3≥B>2)”. Besides, in assay [2] (setting [4]), the EC50 is less than 500 nM and the maximal fold induction is greater than 1.5.
As to `COc1ccc(CN2C(=O)c3c(F)cc(Cl)cc3C2Cc2c(C)ccnc2C#N)cn1` (centres unmarked) [Compound 596, 3-((6-chloro-4-fluoro-2-((6-methoxypyridin-3-yl)methyl)-3-oxoisoindolin-1-yl)methyl)-4-methylpicolinonitrile], the half-maximal effective concentration (EC50) in assay [1] (setting [3]) lay within 500 to 5000 nM. Also, in assay [1], the “Enzymatic Emax” value is listed as “B (3≥B>2)”. For the same compound, in assay [2] (setting [4]), the half-maximal effective concentration (EC50) is 500 to 5000 nM and the maximal fold induction was greater than 1.5.
On to `O=C1c2ccccc2C(Cc2ccccc2OC(F)F)N1Cc1ccc2[nH]c(=O)oc2c1` (centres unmarked) [Compound 210, 6-((1-(2-(difluoromethoxy)benzyl)-3-oxoisoindolin-2-yl)methyl)benzo[d]oxazol-2(3H)-one], for which the EC50 in assay [1] (setting [5]) and in assay [2] (setting [6]) was 500 to 5000 nM throughout. Moreover, in assay [1], the “Enzymatic Emax” value is given as “A (A>3)”. Moreover, in assay [2] (setting [6]), the maximal fold induction was greater than 1.5.
Regarding `Cn1ncc(Cl)c1CC1c2cc(F)ccc2C(=O)N1Cc1ccc2[nH]nnc2c1` (centres unmarked) [Compound 344, 2-((1H-benzo[d][1,2,3]triazol-5-yl)methyl)-3-((4-chloro-1-methyl-1H-pyrazol-5-yl)methyl)-5-fluoroisoindolin-1-one], the EC50 in assay [1] (setting [3]) fell in the range of 500 to 5000 nM. In addition, the “Enzymatic Emax” value in assay [1] is “A (A>3)”. Also, in assay [2] (setting [4]), the half-maximal effective concentration (EC50) is less than 500 nM and the maximal fold induction is greater than 1.5.
`CCCn1c2ccccc2c(=O)n1Cc1ccc(O)cc1` [Compound 25, 2-(4-hydroxybenzyl)-1-propyl-1,2-dihydro-3H-indazol-3-one]: the EC50 in assay [1] (setting [5]) is no less than 5000 nM. For the same compound, the “Enzymatic Emax” value in assay [1] was “A (A>3)”. In assay [2] (setting [6]), the EC50 lay in the range of 5000 to 50000 nM and the maximal fold induction is greater than 1.5.
As for `COc1ccc(CN2C(=O)c3ccccc3C2Cc2c(C)ccnc2C#N)cc1` (centres unmarked) [Compound 567, 3-((2-(4-methoxybenzyl)-3-oxoisoindolin-1-yl)methyl)-4-methylpicolinonitrile], the concentration giving a half-maximal response (EC50) in assay [1] (setting [3]) and in assay [2] (setting [4]) was less than 500 nM throughout. In assay [1], the “Enzymatic Emax” value was “B (3≥B>2)”. In assay [2] (setting [4]), the maximal fold induction was greater than 1.5.
With `Cn1ncc(Cl)c1CC1c2c(F)cccc2C(=O)N1Cc1ccc2[nH]nnc2c1` (centres unmarked) [Compound 338, 2-((1H-benzo[d][1,2,3]triazol-5-yl)methyl)-3-((4-chloro-1-methyl-1H-pyrazol-5-yl)methyl)-4-fluoroisoindolin-1-one], the EC50 in assay [1] (setting [3]) was less than 500 nM. The “Enzymatic Emax” value in assay [1] was “A (A>3)”. Further, in assay [2] (setting [4]), the concentration for a half-maximal effect (EC50) was less than 500 nM and the maximal fold induction was greater than 1.5.
`Cn1ncc(Cl)c1CC1c2ccccc2C(=O)N1CC1CC2(CNC(=O)N2)C1` (centres unmarked) [Compound 611, 3-((4-chloro-1-methyl-1H-pyrazol-5-yl)methyl)-2-((6-oxo-5,7-diazaspiro[3.4]octan-2-yl)methyl)isoindolin-1-one]: the EC50 in assay [1] (setting [3]) is no less than 5000 nM; in assay [2] (setting [4]), 5000 to 50000 nM. The “Enzymatic Emax” value in assay [1] is listed as “C (2≥C)”. Besides, the maximal fold induction in assay [2] (setting [4]) was in the range of 1.2 to 1.5.
